Test results reported in paper PMC3832412 (PLoS ONE, 2013).
Entries after “also recorded” stand apart in the source; their conditions may differ.

What was measured:
[1] = tested on: NMDAR in primary rat hippocampal neurons; format: cell-based, rat (Sprague-Dawley)
[2] = tested on: NMDAR in primary rat hippocampal neurons; format: cell-based, rat (Sprague-Dawley); remark: listed apart in the source

GIKAQRDILYYγGγGγEHI-CONH2 [scrambled peptide]
effect on iCa^2+ levels [1]: did not result in any decrease in iCa^2+ levels; also recorded: no significant differences; also recorded: no such inhibitory activity
inhibition of NMDA-evoked current [2]: did not inhibit NMDA-evoked currents; also recorded: no such inhibitory activity
